Experimental data as given in patent US9120812B2, “Pyrimidooxazocine derivatives as mTOR-inhibitors” (SANOFI, priority 2012, dated 2015).
Where two headings read alike, the source gives them in different places.

What was measured:
U87MG tumour cells = assay: Test of in vitro proliferation of U87MG tumour cells; type: cell-based; details: Homo sapiens, U-87 MG, 72 h, U87MG cells, 72 hours; read-out: U87 Cell Proliferation IC50
Procedure: Model 4: Test of in vitro Proliferation of U87MG Tumour Cells.
The cell growth is determined with the reagent CellTiter 96 AQueous One Solution Cell Proliferation Assay from Promega (Cat. No. G3581).

[1] = target: mTOR (human recombinant aa mTOR 1360-2549) (Homo sapiens (Human), UniProt P42345); assay: mTOR enzymatic test by TR-FRET (phosphorylation of GFP-4EBP1); type: biochemical
In short: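 TR-FRET detection of GFP-4EBP1 phosphorylation by a terbium-labelled anti-phospho-Thr46 antibody. Kinase reaction ran 30 min at room temperature, was quenched with EDTA (10 mM final) plus Tb-antibody (2 nM final) and left 60 min. Emission at 520 and 490 nm after 340 nm excitation, reported as the 520/490 ratio.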

PI3Kα (p110α/p85α) = PI3Kα (p110α/p85α) (Homo sapiens (Human), UniProt P42336); assay: PI3Kα enzymatic test by measuring the consumption of ATP; type: biochemical
In short: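 p110α/p85α (1.7 μg/ml) with 50 μM PIP2 and 2 μM ATP in pH 7.5 Tris buffer with EGTA, MgCl2, Chaps, DTT; reaction 90 min. Remaining ATP measured by luciferin/luciferase luminescence; IC50 from threefold serial dilutions spanning at least 10 000-fold.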

[2] = Homo sapiens, U-87 MG, read-out: U87 Akt-pS473 % Inhibition or IC50, nM (IC50), U87MG cells

Sequence of PI3Kα (p110α/p85α) (P42336 whole entry): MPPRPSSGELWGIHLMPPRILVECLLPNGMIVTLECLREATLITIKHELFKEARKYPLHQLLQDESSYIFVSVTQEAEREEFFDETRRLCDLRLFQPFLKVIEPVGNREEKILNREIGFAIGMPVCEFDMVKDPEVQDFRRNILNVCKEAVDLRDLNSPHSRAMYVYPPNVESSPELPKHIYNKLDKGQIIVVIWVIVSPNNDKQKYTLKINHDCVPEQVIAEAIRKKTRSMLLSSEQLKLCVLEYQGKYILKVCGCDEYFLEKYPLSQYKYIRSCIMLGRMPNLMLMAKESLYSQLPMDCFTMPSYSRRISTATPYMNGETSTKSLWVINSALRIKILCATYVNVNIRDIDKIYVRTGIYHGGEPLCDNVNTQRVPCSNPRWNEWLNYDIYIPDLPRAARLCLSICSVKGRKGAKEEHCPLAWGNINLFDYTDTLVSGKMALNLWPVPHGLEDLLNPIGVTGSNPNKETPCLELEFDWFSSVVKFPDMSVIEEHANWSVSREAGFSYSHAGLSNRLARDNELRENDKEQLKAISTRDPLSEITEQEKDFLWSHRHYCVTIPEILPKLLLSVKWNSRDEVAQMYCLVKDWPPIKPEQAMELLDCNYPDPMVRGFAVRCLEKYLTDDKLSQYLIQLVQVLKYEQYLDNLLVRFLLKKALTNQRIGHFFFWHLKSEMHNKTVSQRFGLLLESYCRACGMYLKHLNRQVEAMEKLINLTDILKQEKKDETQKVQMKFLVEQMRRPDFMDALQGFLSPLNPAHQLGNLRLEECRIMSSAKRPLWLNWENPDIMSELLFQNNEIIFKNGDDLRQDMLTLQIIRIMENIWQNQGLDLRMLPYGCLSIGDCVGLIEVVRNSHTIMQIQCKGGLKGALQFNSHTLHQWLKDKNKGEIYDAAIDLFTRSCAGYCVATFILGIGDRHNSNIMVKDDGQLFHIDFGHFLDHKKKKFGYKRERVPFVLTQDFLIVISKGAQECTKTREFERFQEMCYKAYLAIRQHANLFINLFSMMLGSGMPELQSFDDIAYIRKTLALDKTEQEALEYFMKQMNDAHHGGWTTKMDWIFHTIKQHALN
Sequence of PI3Kα (p110α/p85α) (P27986 whole entry partner): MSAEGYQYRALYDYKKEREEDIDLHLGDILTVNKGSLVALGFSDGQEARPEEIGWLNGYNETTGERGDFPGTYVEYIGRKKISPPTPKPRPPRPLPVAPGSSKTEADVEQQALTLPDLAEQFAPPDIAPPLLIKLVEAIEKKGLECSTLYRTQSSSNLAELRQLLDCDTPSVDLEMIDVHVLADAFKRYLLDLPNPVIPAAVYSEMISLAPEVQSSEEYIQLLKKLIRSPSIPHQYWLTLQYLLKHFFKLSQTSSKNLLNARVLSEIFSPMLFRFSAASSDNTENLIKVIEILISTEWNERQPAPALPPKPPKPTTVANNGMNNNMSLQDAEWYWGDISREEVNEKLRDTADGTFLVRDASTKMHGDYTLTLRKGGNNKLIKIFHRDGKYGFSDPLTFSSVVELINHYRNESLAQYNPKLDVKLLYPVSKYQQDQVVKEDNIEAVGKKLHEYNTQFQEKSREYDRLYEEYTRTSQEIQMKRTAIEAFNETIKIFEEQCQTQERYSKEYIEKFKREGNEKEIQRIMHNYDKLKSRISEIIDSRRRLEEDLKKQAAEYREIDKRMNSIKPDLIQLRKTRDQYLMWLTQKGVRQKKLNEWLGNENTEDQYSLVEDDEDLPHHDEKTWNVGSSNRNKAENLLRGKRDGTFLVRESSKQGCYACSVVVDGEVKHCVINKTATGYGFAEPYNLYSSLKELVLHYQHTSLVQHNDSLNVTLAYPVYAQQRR
Sequence of mTOR (human recombinant aa mTOR 1360-2549) (P42345 1360-2549): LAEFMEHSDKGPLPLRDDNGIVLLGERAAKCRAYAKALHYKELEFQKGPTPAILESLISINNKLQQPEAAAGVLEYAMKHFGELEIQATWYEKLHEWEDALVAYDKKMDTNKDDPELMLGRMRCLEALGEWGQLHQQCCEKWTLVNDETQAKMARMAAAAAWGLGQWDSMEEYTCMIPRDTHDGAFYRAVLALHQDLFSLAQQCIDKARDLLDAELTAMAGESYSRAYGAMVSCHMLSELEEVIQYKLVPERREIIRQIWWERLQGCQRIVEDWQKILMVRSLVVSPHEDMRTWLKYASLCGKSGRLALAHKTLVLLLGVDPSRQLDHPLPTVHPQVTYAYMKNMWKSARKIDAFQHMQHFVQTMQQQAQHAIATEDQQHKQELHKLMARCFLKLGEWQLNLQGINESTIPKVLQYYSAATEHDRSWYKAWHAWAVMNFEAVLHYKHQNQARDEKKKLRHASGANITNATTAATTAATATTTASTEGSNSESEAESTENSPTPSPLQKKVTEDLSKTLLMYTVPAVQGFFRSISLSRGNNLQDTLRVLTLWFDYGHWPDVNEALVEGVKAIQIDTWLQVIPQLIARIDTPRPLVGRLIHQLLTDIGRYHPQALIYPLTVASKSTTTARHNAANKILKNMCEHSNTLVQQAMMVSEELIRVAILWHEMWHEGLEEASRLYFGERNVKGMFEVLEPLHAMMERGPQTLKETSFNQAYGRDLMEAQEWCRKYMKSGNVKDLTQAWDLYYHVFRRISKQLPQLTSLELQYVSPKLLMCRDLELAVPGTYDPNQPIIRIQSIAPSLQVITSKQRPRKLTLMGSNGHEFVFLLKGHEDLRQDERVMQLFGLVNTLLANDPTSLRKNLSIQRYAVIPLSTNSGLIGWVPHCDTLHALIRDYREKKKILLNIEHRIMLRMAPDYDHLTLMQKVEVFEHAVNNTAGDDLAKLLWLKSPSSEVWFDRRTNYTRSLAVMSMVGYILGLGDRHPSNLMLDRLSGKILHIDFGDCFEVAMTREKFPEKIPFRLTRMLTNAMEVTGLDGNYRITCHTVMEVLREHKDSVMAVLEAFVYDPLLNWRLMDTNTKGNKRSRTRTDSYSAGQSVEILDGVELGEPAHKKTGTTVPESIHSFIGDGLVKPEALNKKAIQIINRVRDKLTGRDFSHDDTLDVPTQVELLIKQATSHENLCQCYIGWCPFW

CCN1CC(C)(C)Oc2nc(N3C4CCC3COC4)nc(-c3ccc(NC(=O)Nc4ccncn4)cc3)c2C1=O [Example 92, 1-{4-[6-Ethyl-8,8-dimethyl-2-(3-oxa-8-azabicyclo[3.2.1]oct-8-yl)-5-oxo-5,6,7,8-tetrahydro-9-oxa-1,3,6-triazabenzocyclohepten-4-yl]phenyl}-3-pyrimidin-4-ylurea]
IC50 (U87MG tumour cells): 99 nM
IC50 [1]: 40 nM
IC50 (Akt-pS473 in U87MG cells; [2]): 12 nM
PI3Ka IC50 (PI3Kα (p110α/p85α)): >10000 nM

CCN1CC(C)(C)Oc2nc(N3C4CCC3COC4)nc(-c3ccc(NC(=O)Nc4cc(C)nc(C)n4)cc3)c2C1=O [Example 93, 1-(2,6-Dimethylpyrimidin-4-yl)-3-{4-[6-ethyl-8,8-dimethyl-2-(3-oxa-8-azabicyclo[3.2.1]oct-8-yl)-5-oxo-5,6,7,8-tetrahydro-9-oxa-1,3,6-triazabenzocyclohepten-4-yl]phenyl}urea]
IC50 (U87MG tumour cells): 410 nM
IC50 [1]: 72 nM
IC50 (Akt-pS473 in U87MG cells; [2]): 65 nM
PI3Ka IC50 (PI3Kα (p110α/p85α)): >10000 nM

CCNC(=O)Nc1ccc(-c2nc(N3CCOCC3)nc3c2C(=O)N(CC)CC(C)(C)O3)cc1 [Example 96, 1-Ethyl-3-[4-(6-ethyl-8,8-dimethyl-2-morpholin-4-yl-5-oxo-5,6,7,8-tetrahydro-9-oxa-1,3,6-triazabenzocyclohepten-4-yl)phenyl]urea]
IC50 (U87MG tumour cells): 1470 nM
IC50 [1]: 72 nM
IC50 (Akt-pS473 in U87MG cells; [2]): 107 nM
PI3Ka IC50 (PI3Kα (p110α/p85α)): 1444 nM

CCNC(=O)Nc1ccc(-c2nc(N3CCOC[C@@H]3C)nc3c2C(=O)N(CC)CC(C)(C)O3)cc1 [Example 98, 1-Ethyl-3-{4-[6-ethyl-8,8-dimethyl-2-((S)-3-methylmorpholin-4-yl)-5-oxo-5,6,7,8-tetrahydro-9-oxa-1,3,6-triazabenzocyclohepten-4-yl]phenyl}urea]
IC50 (U87MG tumour cells): 184 nM
IC50 [1]: 26 nM
IC50 (Akt-pS473 in U87MG cells; [2]): 20 nM
PI3Ka IC50 (PI3Kα (p110α/p85α)): 1138 nM

CCNC(=O)Nc1ccc(-c2nc(N3CC4CCC(C3)O4)nc3c2C(=O)N(CC)CC(C)(C)O3)cc1 [Example 99, 1-Ethyl-3-{4-[6-ethyl-8,8-dimethyl-2-(8-oxa-3-azabicyclo[3.2.1]oct-3-yl)-5-oxo-5,6,7,8-tetrahydro-9-oxa-1,3,6-triazabenzocyclohepten-4-yl]phenyl}urea]
IC50 (U87MG tumour cells): 239 nM
IC50 [1]: 31 nM
IC50 (Akt-pS473 in U87MG cells; [2]): 40 nM
PI3Ka IC50 (PI3Kα (p110α/p85α)): >10000 nM

CCN1CC(C)(C)Oc2nc(N3CCOCC3)nc(-c3ccc(NC(=O)OC)cc3)c2C1=O [Example 103, [4-(6-Ethyl-8,8-dimethyl-2-morpholin-4-yl-5-oxo-5,6,7,8-tetrahydro-9-oxa-1,3,6-triazabenzocyclohepten-4-yl)phenyl]carbamic acid methyl ester]
IC50 (U87MG tumour cells): 3510 nM
IC50 [1]: 194 nM
IC50 (Akt-pS473 in U87MG cells; [2]): 425 nM
PI3Ka IC50 (PI3Kα (p110α/p85α)): 6590 nM

CCN1CC(C)(C)Oc2nc(N3CC4CCC(C3)O4)nc(-c3ccc(NC(=O)OC)cc3)c2C1=O [Example 105, {4-[6-Ethyl-8,8-dimethyl-2-(8-oxa-3-azabicyclo[3.2.1]oct-3-yl)-5-oxo-5,6,7,8-tetrahydro-9-oxa-1,3,6-triazabenzocyclohepten-4-yl]phenyl}carbamic acid methyl ester]
IC50 (U87MG tumour cells): 2690 nM
IC50 [1]: 180 nM
IC50 (Akt-pS473 in U87MG cells; [2]): 360 nM
PI3Ka IC50 (PI3Kα (p110α/p85α)): >10000 nM

CCOC(=O)Nc1ccc(-c2nc(N3CC4CCC(C3)O4)nc3c2C(=O)N(CC)CC(C)(C)O3)cc1 [Example 106, {4-[6-Ethyl-8,8-dimethyl-2-(8-oxa-3-azabicyclo[3.2.1]oct-3-yl)-5-oxo-5,6,7,8-tetrahydro-9-oxa-1,3,6-triazabenzocyclohepten-4-yl]phenyl}carbamic acid ethyl ester]
IC50 (U87MG tumour cells): 6560 nM
IC50 [1]: 442 nM
IC50 (Akt-pS473 in U87MG cells; [2]): 767 nM
PI3Ka IC50 (PI3Kα (p110α/p85α)): >10000 nM

CCNC(=O)Nc1ccc(-c2nc(N3CC4CCC(C3)O4)nc3c2C(=O)N(CC)CC(C)(C)O3)cc1F [Example 110, 1-Ethyl-3-{4-[6-ethyl-8,8-dimethyl-2-(8-oxa-3-azabicyclo[3.2.1]oct-3-yl)-5-oxo-5,6,7,8-tetrahydro-9-oxa-1,3,6-triazabenzocyclohepten-4-yl]-2-fluorophenyl}urea]
IC50 (U87MG tumour cells): 506 nM
IC50 [1]: 45 nM
IC50 (Akt-pS473 in U87MG cells; [2]): 89 nM
PI3Ka IC50 (PI3Kα (p110α/p85α)): >10000 nM

CCN1CC(C)(C)Oc2nc(N3CC4CCC(C3)O4)nc(-c3ccc(NC(=O)Nc4cccnc4)cc3)c2C1=O [Example 112, 1-{4-[6-Ethyl-8,8-dimethyl-2-(8-oxa-3-azabicyclo[3.2.1]oct-3-yl)-5-oxo-5,6,7,8-tetrahydro-9-oxa-1,3,6-triazabenzocyclohepten-4-yl]phenyl}-3-pyridin-3-ylurea]
IC50 (U87MG tumour cells): 154 nM
IC50 [1]: 20 nM
IC50 (Akt-pS473 in U87MG cells; [2]): 24 nM
PI3Ka IC50 (PI3Kα (p110α/p85α)): 2660 nM

CCN1CC(C)(C)Oc2nc(N3CC4CCC(C3)O4)nc(-c3ccc(NC(=O)Nc4cc(C)on4)cc3)c2C1=O [Example 116, 1-{4-[6-Ethyl-8,8-dimethyl-2-(8-oxa-3-azabicyclo[3.2.1]oct-3-yl)-5-oxo-5,6,7,8-tetrahydro-9-oxa-1,3,6-triazabenzocyclohepten-4-yl]phenyl}-3-(5-methylisoxazol-3-yl)urea]
IC50 (U87MG tumour cells): 282 nM
IC50 [1]: 42 nM
IC50 (Akt-pS473 in U87MG cells; [2]): 98 nM
PI3Ka IC50 (PI3Kα (p110α/p85α)): 4310 nM

CCN1CC(C)(C)Oc2nc(N3CC4CCC(C3)O4)nc(-c3ccc(NC(=O)NCCO)cc3)c2C1=O [Example 117, 1-{4-[6-Ethyl-8,8-dimethyl-2-(8-oxa-3-azabicyclo[3.2.1]oct-3-yl)-5-oxo-5,6,7,8-tetrahydro-9-oxa-1,3,6-triazabenzocyclohepten-4-yl]phenyl}-3-(2-hydroxyethyl)urea]
IC50 (U87MG tumour cells): 1700 nM
IC50 [1]: 25 nM
IC50 (Akt-pS473 in U87MG cells; [2]): 812 nM
PI3Ka IC50 (PI3Kα (p110α/p85α)): 7410 nM

CCN1CC(C)(C)Oc2nc(N3CC4CCC(C3)O4)nc(-c3ccc(Nc4nc5ccccc5[nH]4)cc3)c2C1=O [Example 118, 4-[4-(1H-Benzimidazol-2-ylamino)phenyl]-6-ethyl-8,8-dimethyl-2-(8-oxa-3-azabicyclo[3.2.1]oct-3-yl)-7,8-dihydro-6H-9-oxa-1,3,6-triazabenzocyclohepten-5-one]
IC50 (U87MG tumour cells): 233 nM
IC50 [1]: 58 nM
IC50 (Akt-pS473 in U87MG cells; [2]): 32 nM
PI3Ka IC50 (PI3Kα (p110α/p85α)): 5040 nM

CCN1CC(C)(C)Oc2nc(N3CC4CCC(C3)O4)nc(-c3ccc(NC(=O)NCCCO)cc3)c2C1=O [Example 119, 1-{4-[6-Ethyl-8,8-dimethyl-2-(8-oxa-3-azabicyclo[3.2.1]oct-3-yl)-5-oxo-5,6,7,8-tetrahydro-9-oxa-1,3,6-triazabenzocyclohepten-4-yl]phenyl}-3-(3-hydroxypropyl)urea]
IC50 (U87MG tumour cells): > 3000 nM
IC50 [1]: 104 nM
IC50 (Akt-pS473 in U87MG cells; [2]): 1060 nM
PI3Ka IC50 (PI3Kα (p110α/p85α)): >10000 nM

CCNC(=O)Nc1ccc(-c2nc(N3CC4CCC(C3)O4)nc3c2C(=O)N(CCC(=O)OC(C)(C)C)CC(C)(C)O3)cc1 [Example 120, 3-[4-[4-(3-Ethylureido)phenyl]-8,8-dimethyl-2-(8-oxa-3-azabicyclo[3.2.1]oct-3-yl)-5-oxo-7,8-dihydro-5H-9-oxa-1,3,6-triazabenzocyclohepten-6-yl]propionic acid tert-butyl ester]
IC50 (U87MG tumour cells): 2260 nM
IC50 [1]: 351 nM
IC50 (Akt-pS473 in U87MG cells; [2]): 1180 nM
PI3Ka IC50 (PI3Kα (p110α/p85α)): >10000 nM

CCN1CC(C)(C)Oc2nc(N3CC4CCC(C3)O4)nc(-c3ccc(Nc4nnc(C)s4)cc3)c2C1=O [Example 121, 6-Ethyl-8,8-dimethyl-4-[4-(5-methyl-[1,3,4]thiadiazol-2-ylamino)phenyl]-2-(8-oxa-3-azabicyclo[3.2.1]oct-3-yl)-7,8-dihydro-6H-9-oxa-1,3,6-triazabenzocyclohepten-5-one]
IC50 (U87MG tumour cells): 802 nM
IC50 [1]: 66 nM
IC50 (Akt-pS473 in U87MG cells; [2]): 130 nM
PI3Ka IC50 (PI3Kα (p110α/p85α)): >10000 nM

CCN1CC(C)(C)Oc2nc(N3CC4CCC(C3)O4)nc(-c3ccc(NC(=O)NCCF)cc3)c2C1=O [Example 123, 1-{4-[6-Ethyl-8,8-dimethyl-2-(8-oxa-3-azabicyclo[3.2.1]oct-3-yl)-5-oxo-5,6,7,8-tetrahydro-9-oxa-1,3,6-triazabenzocyclohepten-4-yl]phenyl}-3-(2-fluoroethyl)urea]
IC50 (U87MG tumour cells): 221 nM
IC50 [1]: 22 nM
IC50 (Akt-pS473 in U87MG cells; [2]): 150 nM
PI3Ka IC50 (PI3Kα (p110α/p85α)): 3627 nM

CCN1CC(C)(C)Oc2nc(N3CC4CCC(C3)O4)nc(-c3ccc(NC(=O)Nc4ccc(OC)nc4)c(F)c3)c2C1=O [Example 124, 1-{4-[6-Ethyl-8,8-dimethyl-2-(8-oxa-3-azabicyclo[3.2.1]oct-3-yl)-5-oxo-5,6,7,8-tetrahydro-9-oxa-1,3,6-triazabenzocyclohepten-4-yl]-2-fluorophenyl}-3-(6-methoxypyridin-3-yl)urea]
IC50 (U87MG tumour cells): 115 nM
IC50 [1]: 20 nM
IC50 (Akt-pS473 in U87MG cells; read-out: U87 Akt-pS473 % Inhibition or IC50, nM (IC50), U87MG cells): 61 nM
PI3Ka IC50 (PI3Kα (p110α/p85α)): >10000 nM

CCN1CC(C)(C)Oc2nc(N3CC4CCC(C3)O4)nc(-c3ccc(NC(=O)Nc4cnn(C)c4)cc3)c2C1=O [Example 126, 1-{4-[6-Ethyl-8,8-dimethyl-2-(8-oxa-3-azabicyclo[3.2.1]oct-3-yl)-5-oxo-5,6,7,8-tetrahydro-9-oxa-1,3,6-triazabenzocyclohepten-4-yl]phenyl}-3-(1-methyl-1H-pyrazol-4-yl)urea]
IC50 (U87MG tumour cells): 225 nM
IC50 [1]: 13 nM
IC50 (Akt-pS473 in U87MG cells; [2]): 68 nM
PI3Ka IC50 (PI3Kα (p110α/p85α)): 2963 nM
